In the NIST ThermoML archive (doi:10.1016/j.jct.2013.09.043):
± gives the expanded uncertainty stated by the source.

Experiments:
[1] = 101 kPa, Liquid; for viscosity: Capillary tube (Ostwald / Ubbelohde) method; for mass density: Vibrating tube method
[2] = xn = mol fraction of the nth substance listed; settings: 101 kPa, Liquid; for viscosity: Capillary tube (Ostwald / Ubbelohde) method; for mass density: Vibrating tube method

| SMILES | viscosity ([1]; 298.15 K) [mPa·s] | mass density ([1]; 298.15 K) [kg/m3] | viscosity ([1]; 303.15 K) [mPa·s] | mass density ([1]; 303.15 K) [kg/m3] | viscosity ([1]; 308.15 K) [mPa·s] | mass density ([1]; 308.15 K) [kg/m3] | viscosity ([1]; 313.15 K) [mPa·s] | mass density ([1]; 313.15 K) [kg/m3] | other results |
| --- | --- | --- | --- | --- | --- | --- | --- | --- | --- |
| CCCCCC(C)O (stereo not drawn) [2-heptanol] | 5.296 ± 0.21 | 813.38 ± 1 | 4.315 ± 0.17 | 809.5 ± 1 | 3.535 ± 0.14 | 805.72 ± 1 | 2.96 ± 0.12 | 801.46 ± 1 |  |
| CCCCC(C)O (stereo not drawn) [2-hexanol] | 4.101 ± 0.17 | 810.14 ± 1 | 3.411 ± 0.14 | 806.13 ± 1 | 2.819 ± 0.12 | 802.06 ± 1 | 2.219 ± 0.09 | 797.96 ± 1 |  |
| CCC(C)O (stereo not drawn) [butan-2-ol] | 3.034 ± 0.12 | 803.09 ± 1 | 2.527 ± 0.1 | 798.89 ± 1 | 2.125 ± 0.086 | 795.04 ± 1 | 1.798 ± 0.073 | 790.15 ± 1 |  |
| CCC(C)O (stereo not drawn) [butan-2-ol] + NC=O |  |  |  |  |  |  |  |  | viscosity ([2]; 298.15 K, x2 = 0): 3.034 ± 0.12 mPa·s; mass density ([2]; 298.15 K, x2 = 0): 803.09 ± 1 kg/m3; viscosity ([2]; 303.15 K, x2 = 0): 2.527 ± 0.1 mPa·s; mass density ([2]; 303.15 K, x2 = 0): 798.89 ± 1 kg/m3; viscosity ([2]; 308.15 K, x2 = 0): 2.125 ± 0.086 mPa·s; mass density ([2]; 308.15 K, x2 = 0): 795.04 ± 1 kg/m3; viscosity ([2]; 313.15 K, x2 = 0): 1.798 ± 0.073 mPa·s; mass density ([2]; 313.15 K, x2 = 0): 790.15 ± 1 kg/m3 |
| NC=O [formamide] | 3.305 ± 0.13 | 1129 ± 1 | 2.975 ± 0.12 | 1125.1 ± 1 | 2.64 ± 0.11 | 1120.98 ± 1 | 2.42 ± 0.098 | 1116.85 ± 1 |  |
| NC=O [formamide] + CCCC(C)O |  |  |  |  |  |  |  |  | viscosity ([2]; 298.15 K, x1 = 1): 3.305 ± 0.13 mPa·s; mass density ([2]; 298.15 K, x1 = 1): 1129 ± 1 kg/m3; viscosity ([2]; 303.15 K, x1 = 1): 2.975 ± 0.12 mPa·s; mass density ([2]; 303.15 K, x1 = 1): 1125.1 ± 1 kg/m3; viscosity ([2]; 308.15 K, x1 = 1): 2.64 ± 0.11 mPa·s; mass density ([2]; 308.15 K, x1 = 1): 1120.98 ± 1 kg/m3; viscosity ([2]; 313.15 K, x1 = 1): 2.42 ± 0.098 mPa·s; mass density ([2]; 313.15 K, x1 = 1): 1116.85 ± 1 kg/m3 |
| NC=O [formamide] + CCCCC(C)O |  |  |  |  |  |  |  |  | viscosity ([2]; 298.15 K, x1 = 1): 3.305 ± 0.13 mPa·s; mass density ([2]; 298.15 K, x1 = 1): 1129 ± 1 kg/m3; viscosity ([2]; 303.15 K, x1 = 1): 2.975 ± 0.12 mPa·s; mass density ([2]; 303.15 K, x1 = 1): 1125.1 ± 1 kg/m3; viscosity ([2]; 308.15 K, x1 = 1): 2.64 ± 0.11 mPa·s; mass density ([2]; 308.15 K, x1 = 1): 1120.98 ± 1 kg/m3; viscosity ([2]; 313.15 K, x1 = 1): 2.42 ± 0.098 mPa·s; mass density ([2]; 313.15 K, x1 = 1): 1116.85 ± 1 kg/m3 |
| NC=O [formamide] + CCCCCC(C)O |  |  |  |  |  |  |  |  | viscosity ([2]; 298.15 K, x1 = 1): 3.305 ± 0.13 mPa·s; mass density ([2]; 298.15 K, x1 = 1): 1129 ± 1 kg/m3; viscosity ([2]; 303.15 K, x1 = 1): 2.975 ± 0.12 mPa·s; mass density ([2]; 303.15 K, x1 = 1): 1125.1 ± 1 kg/m3; viscosity ([2]; 308.15 K, x1 = 1): 2.64 ± 0.11 mPa·s; mass density ([2]; 308.15 K, x1 = 1): 1120.98 ± 1 kg/m3; viscosity ([2]; 313.15 K, x1 = 1): 2.42 ± 0.098 mPa·s; mass density ([2]; 313.15 K, x1 = 1): 1116.85 ± 1 kg/m3 |
| CCCC(C)O (stereo not drawn) [pentan-2-ol] | 3.423 ± 0.14 | 805.05 ± 1 | 2.834 ± 0.12 | 800.88 ± 1 | 2.348 ± 0.095 | 796.89 ± 1 | 1.979 ± 0.08 | 792.62 ± 1 |  |
| CC(C)O [propan-2-ol] | 2.077 ± 0.084 | 780.95 ± 1 | 1.787 ± 0.072 | 776.79 ± 1 | 1.558 ± 0.063 | 772.39 ± 1 | 1.351 ± 0.055 | 767.76 ± 1 |  |
| CC(C)O [propan-2-ol] + NC=O |  |  |  |  |  |  |  |  | viscosity ([2]; 298.15 K, x2 = 0): 2.077 ± 0.084 mPa·s; mass density ([2]; 298.15 K, x2 = 0): 780.95 ± 1 kg/m3; viscosity ([2]; 303.15 K, x2 = 0): 1.787 ± 0.072 mPa·s; mass density ([2]; 303.15 K, x2 = 0): 776.79 ± 1 kg/m3; viscosity ([2]; 308.15 K, x2 = 0): 1.558 ± 0.063 mPa·s; mass density ([2]; 308.15 K, x2 = 0): 772.39 ± 1 kg/m3; viscosity ([2]; 313.15 K, x2 = 0): 1.351 ± 0.055 mPa·s; mass density ([2]; 313.15 K, x2 = 0): 767.76 ± 1 kg/m3 |
